Source: patent US20070003987A1, “Screening method for substance binding to merozoite surface protein-1/42” (priority 2003, published 2007)

Key:
MSP142 [1] = target: T1, MSP142 (Plasmodium falciparum, UniProt Q8I0U8); experiment: competition binding of analogues 258 and 264 against suramin; conditions: MSP142 0.1 mg/ml, 1 hour
Protocol: MSP142 (0.1 mg/ml) and fixed concentrations of analogue 258 (5 μM) or 264 (10 μM) were premixed and 90 μL added to a 384-well black polypropylene plate. Suramin was added to give a final concentration in the range 0.01 to 200 μM in a total reaction volume of 100 μL. The plates were incubated at room temperature protected from light for 1 hour, and then read as before. Results are shown in FIG. 10, which is a graph of fluorescence (arbitary units) against concentration of suramin competitor for analogue 258 (white squares) and 264 (black circles).

[2] = target: T2, MSP119 from P. falciparum (Plasmodium falciparum, UniProt P04933, S1528A); experiment: NMR titration of 15N labelled MSP119 with suramin; type: binding
T2 construct: contained the 96 amino acid MSP119 fragment, preceded by a single His residue; N-terminal leader […]; (His6 + Factor Xa site); made in house; host or cells: Pichia pastoris (vector pPIC9K)
T2 sequence (P04933 1526-1618 S1528A): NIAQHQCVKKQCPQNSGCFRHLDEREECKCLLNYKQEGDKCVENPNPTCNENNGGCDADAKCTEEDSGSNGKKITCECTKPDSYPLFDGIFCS
Excerpt: (§1) Plasmodium falciparum MSP119 (Swiss-Prot 04933) was expressed from a synthetic gene optimised for Pichia pastoris expression (European Patent No. EP1180120). This construct, inserted at the SnaBI site of vector pPIC9K (Invitrogen), contained the N-terminal leader sequence YHHHHHHIEGRH preceding the MSP119 sequence. A point mutation (Ser3 to Ala) was also introduced to eliminate N-glycosylation at Asn1. Following purification of MSP119 as described previously (Morgan et al, 1999 J. Mol. Biol. 289, 113-122), the N-terminal tag was cleaved with Factor Xa (New England Biolabs) and MSP119 was purified by gel filtration (Superdex 200). The fmal product contained the 96 amino acid MSP119 fragment, preceded by a single His residue.
NMR experiments were carried out on Varian spectrometers operating at proton frequencies of 500, 600 and 800 MHz. Suramin (0.03-16.0 mM) ^1H spectra were recorded at 5 to 35° C. […] MSP119/suramin samples were examined with either unlablled or ^15N labelled MSP119 in 50 mM sodium phosphate and 100 mM NaCl in 90% H2O/10% D2O at pH 6.5 (pH values are pH meter readings uncorrected for deuterium isotope effects). […] 1D ^1H and 2D ^1H-^15N HSQC NMR spectra were recorded for each concentration of suramin. […]

[3] = target: T2, MSP119 from P. falciparum; experiment: binding of suramin by fluorimetry
Excerpt: as §1
The intrinsic fluorescence of suramin was used to determine its capacity to bind to the various MSP1-derived proteins. The fluorescence was measured using a Perkin Elmer LS-3B or a Spex Fluoro Max 2 fluorimeter. Suramin was excited at a wavelength of 315 or 330 nm with 2.5 nm resolution, the emission spectra were measured at wavelengths ranging from 350-450 nm. Suramin and the MSP1 proteins were diluted in 20 mM NaH2PO4, 150 mM NaCl at pH 7.2 and analysed at 10 or 20° C. Titrations were performed by adding aliquots of the suramin solution to the MSP1 solution. […] The Kd for the suramin-MSP1 binding was determined from three independent experiments.

MSP142 [4] = target: T1, MSP142; experiment: titration of fluorescent analogues against MSP142; type: binding
Protocol: Analogues 258, 261, 264 and 266 were titrated against (a) PBS buffer only, (b) 0.1 mg/ml bovine serum albumin in PBS or (c) 0.1 mg/ml MSP142 in PBS. Fluorescence observed was compared to naphthalenetrisulphate (non-specific reagent) and suramin.

P. falciparum (FCB-1) = experiment: growth inhibition assay by [3H] hypoxanthine uptake; type: cell-based, Plasmodium falciparum; conditions: Plasmodium falciparum, Erythrocyte, read-out: IC50, inhibition of erythrocyte invasion ([3H] hypoxanthine incorporation, FIG. 2)
Protocol: Asexual blood stages of P. falciparum (FCB-1) were maintained at 37° C. in RPMI 1640/Albumax medium (Gibco) supplemented with 2 mM L-glutamine as previously described (Blackman, 1994 Methods Cell Biol. 45, 213-220). Cultures were gassed with 7% CO2, 5% O2 and 88% N2 and maintained by routine passage in fresh human erythrocytes. Parasites were synchronised by Percoll and sorbitol treatment (Holder & Freeman, 1982 J. Exp. Med. 156, 1528-1538); schizonts were purified by centrifugation over Percoll and then returned to culture in the presence of fresh erythrocytes. After 4 h, during which time released merozoites invaded erythrocytes, the cells were treated with 5% sorbitol for 10 min to lyse the residual schizonts, before returning the parasites to culture.
Suramin and NTS were also assayed for P. falciparum growth inhibition using [^3H] hypoxanthine uptake (generally as described by Desjardins et al, 1979 Antimicrob. Agents Chemother. 16, 710-718). Serial dilutions of the compounds in 96-well plates were incubated at 37° C. with purified mature schizonts at a final parasitaemia of ^˜0.5% and a haematrocrit of ^˜2% in triplicate cultures. […] The filters were wetted with scintillation cocktail and the bound radioactivity counted in a β-counter. […] The amount of radioactivity in each sample was expressed as a percentage of activity in the control wells containing no compound. […]

T1 sequence (Q8I0U8 1327-1699): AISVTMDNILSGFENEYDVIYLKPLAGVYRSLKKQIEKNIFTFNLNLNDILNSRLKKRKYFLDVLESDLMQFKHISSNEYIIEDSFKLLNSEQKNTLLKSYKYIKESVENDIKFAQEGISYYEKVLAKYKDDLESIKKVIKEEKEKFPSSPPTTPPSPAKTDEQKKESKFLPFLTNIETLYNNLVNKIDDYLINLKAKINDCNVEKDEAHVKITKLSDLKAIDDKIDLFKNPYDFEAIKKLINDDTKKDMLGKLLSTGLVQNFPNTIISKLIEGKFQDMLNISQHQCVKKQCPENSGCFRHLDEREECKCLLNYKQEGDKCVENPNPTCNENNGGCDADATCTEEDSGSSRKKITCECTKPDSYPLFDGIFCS

SMILES: Cc1ccc(C(=O)Nc2ccc(S(=O)(=O)O)c3cc(S(=O)(=O)O)cc(S(=O)(=O)O)c23)cc1NC(=O)c1cccc(NC(=O)Nc2cccc(C(=O)Nc3cc(C(=O)Nc4ccc(S(=O)(=O)O)c5cc(S(=O)(=O)O)cc(S(=O)(=O)O)c45)ccc3C)c2)c1 [suramin]
- IC50 (MSP142 [1]; IC50, displacement of analogue 258 from MSP1 by suramin, analogue 258 at 5 μM): 8 µM
- IC50 (MSP142 [1]; IC50, displacement of analogue 264 from MSP1 by suramin, analogue 264 at 10 μM): 3 µM
- Kd [2]: ~15000 µM
- enhancement of suramin fluorescence on addition to MSP119 [3]: No fluorescence enhancement
- EC50 (MSP142 [4]): ~2 µM
- fluorescence in the presence of MSP142 (MSP142 [4]; 0.1 mg/ml MSP142 in PBS, 0.01-200 μM): became fluorescent in the presence of MSP142 specifically
- IC50 (P. falciparum (FCB-1)): 60 µM
